BindingDB's records for doi:10.1021/jm980023c (F. Hoffmann-La Roche, 1998)

The molecules below were run against Beta-lactamase (Pseudomonas aeruginosa (strain ATCC 15692 / DSM 22644 / CIP 104116 / JCM 14847 / LMG 12228 / 1C / PRS 101 / PAO1), UniProt P24735) (assay: Deacylation of 18SH Beta-lactamase of Pseudomonas aeruginosa).
Sequence of Beta-lactamase (P24735 whole entry): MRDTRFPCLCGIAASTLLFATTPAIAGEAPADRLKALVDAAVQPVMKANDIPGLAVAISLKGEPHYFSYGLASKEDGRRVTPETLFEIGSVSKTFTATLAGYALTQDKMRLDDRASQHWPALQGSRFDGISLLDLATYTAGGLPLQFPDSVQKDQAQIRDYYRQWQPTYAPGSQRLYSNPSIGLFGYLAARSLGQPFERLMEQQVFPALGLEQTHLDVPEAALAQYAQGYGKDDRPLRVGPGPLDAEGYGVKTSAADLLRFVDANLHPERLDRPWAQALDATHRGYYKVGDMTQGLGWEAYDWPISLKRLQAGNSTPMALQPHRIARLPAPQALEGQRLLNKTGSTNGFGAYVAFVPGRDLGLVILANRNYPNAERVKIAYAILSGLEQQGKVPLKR

Row | SMILES | koff [s⁻¹]
1 | CC(C)(C)OC(=O)N1CC[C@@H]2[C@H]1C(=O)N2S(=O)(=O)O [Sodium; (1S,5R)-2-tert-butoxycarbonyl-7-oxo-2,6-diaza-bicyclo[3.2.0]heptane-6-sulfonate] | 0.000037
2 | O=C(NC1CCNCC1)N1CC[C@@H]2[C@H]1C(=O)N2S(=O)(=O)O [Sodium; (1S,5R)-7-oxo-2-(piperidin-4-ylcarbamoyl)-2,6-diaza-bicyclo[3.2.0]heptane-6-sulfonate] | 0.0012
3 | CC(C)(C)OC(=O)N1CCC[C@@H]2[C@H]1C(=O)N2S(=O)(=O)O [Sodium; (1S,6R)-2-tert-butoxycarbonyl-8-oxo-2,7-diaza-bicyclo[4.2.0]octane-7-sulfonate] | 0.0007

Each molecule was assayed against Beta-lactamase TEM-3 (Escherichia coli) (assay: Inhibitory activity against Escherichia coli TEM-3 Beta-lactamase).

Row | SMILES | IC50 [µM]
4 | NC(=O)c1ccc[n+](CC(=O)N2CC[C@@H]3[C@H]2C(=O)N3S(=O)(=O)[O-])c1 | 0.7
5 | Cn1nnnc1S[C@@H]1CN(C(=O)OCc2ccccc2)[C@@H]2C(=O)N(S(=O)(=O)O)[C@@H]21 [Sodium; (1S,4R,5S)-2-benzyloxycarbonyl-4-(1-methyl-1H-tetrazol-5-ylsulfanyl)-7-oxo-2,6-diaza-bicyclo[3.2.0]heptane-6-sulfonate] | 0.035
6 | O=C(OCc1ccccc1)N1C[C@H](F)[C@@H]2[C@H]1C(=O)N2S(=O)(=O)O [Sodium; (1S,4S,5S)-2-benzyloxycarbonyl-4-fluoro-7-oxo-2,6-diaza-bicyclo[3.2.0]heptane-6-sulfonate] | 0.511
7 | NC(=O)c1cccc(NC(=O)N2CC[C@@H]3[C@H]2C(=O)N3S(=O)(=O)O)c1 [Sodium; (1S,5R)-2-(3-carbamoyl-phenylcarbamoyl)-7-oxo-2,6-diaza-bicyclo[3.2.0]heptane-6-sulfonate] | 4
8 | NC(=O)c1ccc(NC(=O)N2CC[C@@H]3[C@H]2C(=O)N3S(=O)(=O)O)cc1 [Sodium; (1S,5R)-2-(4-carbamoyl-phenylcarbamoyl)-7-oxo-2,6-diaza-bicyclo[3.2.0]heptane-6-sulfonate] | > 100
9 | O=C(Nc1ccc(O)cc1)N1CC[C@@H]2[C@H]1C(=O)N2S(=O)(=O)O [Sodium; (1S,5R)-2-(4-hydroxy-phenylcarbamoyl)-7-oxo-2,6-diaza-bicyclo[3.2.0]heptane-6-sulfonate] | > 100
10 | Cn1ccnc1SCC(=O)N1CC[C@@H]2[C@H]1C(=O)N2S(=O)(=O)O [Sodium; (1S,5R)-2-[2-(1-methyl-1H-imidazol-2-ylsulfanyl)-acetyl]-7-oxo-2,6-diaza-bicyclo[3.2.0]heptane-6-sulfonate] | > 100
11 | Cn1nnnc1SCC(=O)N1CC[C@@H]2[C@H]1C(=O)N2S(=O)(=O)O [Sodium; (1S,5R)-2-[2-(1-methyl-1H-tetrazol-5-ylsulfanyl)-acetyl]-7-oxo-2,6-diaza-bicyclo[3.2.0]heptane-6-sulfonate] | > 100
12 | Cc1nn(C)c(SCC(=O)N2CC[C@@H]3[C@H]2C(=O)N3S(=O)(=O)O)nc1=O [Sodium; (1S,5R)-2-[2-(2,6-dimethyl-5-oxo-2,5-dihydro-[1,2,4]triazin-3-ylsulfanyl)-acetyl]-7-oxo-2,6-diaza-bicyclo[3.2.0]heptane-6-sulfonate] | > 100
13 | O=C(CNc1ccc(O)cc1)N1CC[C@@H]2[C@H]1C(=O)N2S(=O)(=O)O [Sodium; (1S,5R)-2-[2-(4-hydroxy-phenylamino)-acetyl]-7-oxo-2,6-diaza-bicyclo[3.2.0]heptane-6-sulfonate] | 79.2
14 | Cn1cnnc1SCC(=O)N1CC[C@@H]2[C@H]1C(=O)N2S(=O)(=O)O [Sodium; (1S,5R)-2-[2-(4-methyl-4H-[1,2,4]triazol-3-ylsulfanyl)-acetyl]-7-oxo-2,6-diaza-bicyclo[3.2.0]heptane-6-sulfonate] | > 100
15 | NC(C(=O)N1CC[C@@H]2[C@H]1C(=O)N2S(=O)(=O)O)c1ccc(O)cc1 (stereo partly drawn) [Sodium; (1S,5R)-2-[2-amino-2-(4-hydroxy-phenyl)-acetyl]-7-oxo-2,6-diaza-bicyclo[3.2.0]heptane-6-sulfonate] | > 100
16 | NC(=O)/C=C1\CN(C(=O)OCc2ccccc2)[C@@H]2C(=O)N(S(=O)(=O)O)[C@H]12 [Sodium; (1S,5R)-2-benzyloxycarbonyl-4-[1-carbamoyl-meth-(E)-ylidene]-7-oxo-2,6-diaza-bicyclo[3.2.0]heptane-6-sulfonate] | 0.031
17 | O=C(OCc1ccccc1)N1CC[C@@H]2[C@H]1C(=O)N2S(=O)(=O)O [Sodium; (1S,5R)-2-benzyloxycarbonyl-7-oxo-2,6-diaza-bicyclo[3.2.0]heptane-6-sulfonate] | > 100
18 | CC(C)(C)OC(=O)N1CC[C@@H]2[C@H]1C(=O)N2S(=O)(=O)O [Sodium; (1S,5R)-2-tert-butoxycarbonyl-7-oxo-2,6-diaza-bicyclo[3.2.0]heptane-6-sulfonate] | > 100
19 | NC(=O)Nc1ccc(NC(=O)N2CC[C@@H]3[C@H]2C(=O)N3S(=O)(=O)O)cc1 [Sodium; (1S,5R)-7-oxo-2-(4-ureido-phenylcarbamoyl)-2,6-diaza-bicyclo[3.2.0]heptane-6-sulfonate] | 100
20 | O=C1NCC[C@@H]1NC(=O)N1CC[C@@H]2[C@H]1C(=O)N2S(=O)(=O)O [Sodium; (1S,5R)-7-oxo-2-((S)-2-oxo-pyrrolidin-3-ylcarbamoyl)-2,6-diaza-bicyclo[3.2.0]heptane-6-sulfonate] | > 100
21 | O=C(NC1CCNCC1)N1CC[C@@H]2[C@H]1C(=O)N2S(=O)(=O)O [Sodium; (1S,5R)-7-oxo-2-(piperidin-4-ylcarbamoyl)-2,6-diaza-bicyclo[3.2.0]heptane-6-sulfonate] | > 100
22 | CC(C)(C)OC(=O)N1CCC[C@@H]2[C@H]1C(=O)N2S(=O)(=O)O [Sodium; (1S,6R)-2-tert-butoxycarbonyl-8-oxo-2,7-diaza-bicyclo[4.2.0]octane-7-sulfonate] | > 100
